Assay results as given in patent US9090593B2, “Bicyclic compounds as Pim inhibitors” (AMGEN INC., priority 2010, dated 2015).

Legend:
[1] = target: T1, full length recombinant Pim-1 protein (Homo sapiens, UniProt P11309); experiment: Pim-1 enzyme assay (HTRF, phosphorylation of biotinylated-BAD (S112) peptide); type: biochemical; settings: enzyme assay, Pim-1; read-out: Pim_1_IC50
T1 construct: by full length recombinant Pim-1, Pim-2, or Pim-3 protein; hexahistidine tag followed by a thrombin cleavage site (N); made in house; host or cells: Sf9 (baculovirus) or E. coli (pET28)
T1 sequence (P11309 whole entry): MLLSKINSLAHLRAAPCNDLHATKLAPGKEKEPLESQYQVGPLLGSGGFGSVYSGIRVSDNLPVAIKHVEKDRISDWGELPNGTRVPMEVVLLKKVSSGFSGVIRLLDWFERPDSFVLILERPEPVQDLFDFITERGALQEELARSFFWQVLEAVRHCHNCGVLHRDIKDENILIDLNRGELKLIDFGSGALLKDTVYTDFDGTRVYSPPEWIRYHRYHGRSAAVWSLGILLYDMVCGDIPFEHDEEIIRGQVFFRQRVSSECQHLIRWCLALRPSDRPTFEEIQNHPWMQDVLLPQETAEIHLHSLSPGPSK
Procedure, shortened: (§1)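 Full-length human Pim-1 or Pim-2 (His6-tagged, Sf9 or E. coli expressed, Ni and Superdex 75 purified) phosphorylates biotinylated BAD (S112) peptide in 60 mM Hepes pH 7.0, 0.05% BSA, 2 mM DTT. Stopped with 3 mM EDTA; HTRF read with Eu anti-phospho-BAD and streptavidin-APC. IC50 from 4-parameter logistic fit of percent of control.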

[2] = target: T2, full length recombinant Pim-2 protein (Homo sapiens, UniProt Q9P1W9); experiment: Pim-2 enzyme assay (HTRF, phosphorylation of biotinylated-BAD (S112) peptide); type: biochemical; settings: enzyme assay, Pim-2; read-out: Pim2_IC50
T2 construct: by full length recombinant Pim-1, Pim-2, or Pim-3 protein; hexahistidine tag followed by a thrombin cleavage site (N); made in house; host or cells: Sf9 (baculovirus) or E. coli (pET28)
T2 sequence (Q9P1W9 whole entry): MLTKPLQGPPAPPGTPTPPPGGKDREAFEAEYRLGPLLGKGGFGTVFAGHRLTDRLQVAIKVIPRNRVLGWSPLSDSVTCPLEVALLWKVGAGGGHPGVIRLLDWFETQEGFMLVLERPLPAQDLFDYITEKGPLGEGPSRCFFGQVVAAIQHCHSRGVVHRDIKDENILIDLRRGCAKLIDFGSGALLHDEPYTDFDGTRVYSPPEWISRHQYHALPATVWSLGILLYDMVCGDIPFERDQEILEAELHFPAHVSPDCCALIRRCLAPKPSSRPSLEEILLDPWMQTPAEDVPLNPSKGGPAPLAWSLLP
Procedure, shortened: as §1

[3] = target: T3, full length recombinant Pim-3 protein (Homo sapiens, UniProt Q86V86); experiment: Pim-3 enzyme assay (HTRF, phosphorylation of biotinylated-BAD (S112) peptide); type: biochemical; settings: read-out: Pim3 IC50
T3 construct: by full length recombinant Pim-1, Pim-2, or Pim-3 protein; purchased Millipore (UK)
Procedure, shortened: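 Full-length recombinant Pim-3 phosphorylates biotinylated BAD (S112) peptide in 60 mM Hepes pH 7.0, 0.05% BSA, 2 mM DTT; reaction stopped with 3 mM EDTA. Phospho-BAD detected by HTRF (Eu anti-phospho-BAD S112 antibody, streptavidin-APC). IC50 from percent-of-control values fitted to a 4-parameter logistic model.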

[4] = target: T4, Pim-1 stably transfected into the U2OS human osteogenic sarcoma line (Homo sapiens, UniProt P11309); experiment: Pim cell assay, phospho-BAD normalized against total BAD, U2OS stably transfected with Pim-1; type: cell-based; settings: U2OS cells stably transfected with Pim-1, phospho-BAD; high dose […]; read-out: Pim1_Cell_IC50
T4 construct: expressed in transfected cells; host or cells: U2OS human osteogenic sarcoma line
T4 sequence (P11309 whole entry): as the sequence (P11309 whole entry) above
Procedure, shortened: (§2)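 U2OS cells stably expressing Pim-1 or Pim-2 were plated overnight at 37 °C, then dosed over a 10-point curve (final 0.3% DMSO; DMSO alone as high control). Lysates assayed for phospho- and total BAD by Meso Scale immunoassay; % phosphoprotein = (2×phospho)/(phospho+total)×100.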

[5] = target: T5, Pim-2 stably transfected into the U2OS human osteogenic sarcoma line (Homo sapiens, UniProt Q9P1W9); experiment: Pim cell assay, phospho-BAD normalized against total BAD, U2OS stably transfected with Pim-2; type: cell-based; settings: U2OS cells stably transfected with Pim-2, phospho-BAD; high dose […]; read-out: Pim2_Cell_IC50; also: high dose 31.6 µM
T5 construct: expressed in transfected cells; host or cells: U2OS human osteogenic sarcoma line
T5 sequence (Q9P1W9 whole entry): as the sequence (Q9P1W9 whole entry) above
Procedure, shortened: as §2

Structure (SMILES)	IC50 [1] [nM]	IC50 [2] [nM]	IC50 [3] [nM]	IC50 [4] [nM]	IC50 [5] [nM]
CN(C)C(=O)c1ccc(F)c(-c2ccc3[nH]nc(-c4cncc(N5CCC(N)CC5)n4)c3c2)c1 [Example 40, 3-(3-(6-(4-amino-1-piperidinyl)-2-pyrazinyl)-1H-indazol-5-yl)-4-fluoro-N,N-dimethylbenzamide]	24	13	16	2370	7060
NC1CCN(c2cncc(-c3n[nH]c4ccc(-c5cc(C(=O)N6CCOCC6)ccc5F)cc34)n2)CC1 [Example 42, 1-(6-(5-(2-fluoro-5-(4-morpholinylcarbonyl)phenyl)-1H-indazol-3-yl)-2-pyrazinyl)-4-piperidinamine]	32	41	20	2800	9840
CCNC(=O)c1ccc(F)c(-c2ccc3[nH]nc(-c4cncc(N5CCC(N)CC5)n4)c3c2)c1 [Example 43, 3-(3-(6-(4-amino-1-piperidinyl)-2-pyrazinyl)-1H-indazol-5-yl)-N-ethyl-4-fluorobenzamide]	7	5	3	2520	14900
CC(C)NC(=O)c1ccc(F)c(-c2ccc3[nH]nc(-c4cncc(N5CCC(N)CC5)n4)c3c2)c1 [Example 44, 3-(3-(6-(4-amino-1-piperidinyl)-2-pyrazinyl)-1H-indazol-5-yl)-4-fluoro-N-(1-methylethyl)benzamide]	7	5	4	932	4580
CCN(CC)C(=O)c1cccc(-c2ccc3[nH]nc(-c4cncc(N5CCC(N)CC5)n4)c3c2)c1F [Example 47, 3-(3-(6-(4-amino-1-piperidinyl)-2-pyrazinyl)-1H-indazol-5-yl)-N,N-diethyl-2-fluorobenzamide]	43	290	43	1940	> 31600
NC1CCN(c2cncc(-c3n[nH]c4ccc(-c5cc6ccccc6nc5Cl)cc34)n2)CC1 [Example 48, 1-(6-(5-(2-chloro-3-quinolinyl)-1H-indazol-3-yl)-2-pyrazinyl)-4-piperidinamine]	44	285	27	1110	> 31600
Cn1c(=O)cc(-c2ccc3[nH]nc(-c4cncc(N5CCC(N)CC5)n4)c3c2)c2ccccc21 [Example 50, 4-(3-(6-(4-amino-1-piperidinyl)-2-pyrazinyl)-1H-indazol-5-yl)-1-methyl-2(1H)-quinolinone]	24	470	21	2270	> 31600
NC1CCN(c2cncc(-c3n[nH]c4ccc(-c5ccc6scnc6c5)cc34)n2)CC1 [Example 53, 1-(6-(5-(1,3-benzothiazol-5-yl)-1H-indazol-3-yl)-2-pyrazinyl)-4-piperidinamine]	2	17	1	280	9930
NC1CCN(c2cncc(-c3n[nH]c4ccc(-c5cnc6ccccc6c5)cc34)n2)CC1 [Example 55, 1-(6-(5-(3-quinolinyl)-1H-indazol-3-yl)-2-pyrazinyl)-4-piperidinamine]	1	51	1	287	> 31600
CN1CCOc2cc(-c3ccc4[nH]nc(-c5cncc(N6CCC(N)CC6)n5)c4c3)cnc21 [Example 58, 1-(6-(5-(4-methyl-3,4-dihydro-2H-pyrido[3,2-b][1,4]oxazin-7-yl)-1H-indazol-3-yl)-2-pyrazinyl)-4-piperidinamine]	2	11	1	164	6760
CS(=O)(=O)c1ccc(-c2ccc3[nH]nc(-c4cncc(N5CCC(N)CC5)n4)c3c2)cc1 [Example 59, 1-(6-(5-(4-(methylsulfonyl)phenyl)-1H-indazol-3-yl)-2-pyrazinyl)-4-piperidinamine]	3	28	11	2160	> 31600
N#Cc1ccccc1-c1ccc2[nH]nc(-c3cncc(N4CCC(N)CC4)n3)c2c1 [Example 60, 2-(3-(6-(4-amino-1-piperidinyl)-2-pyrazinyl)-1H-indazol-5-yl)benzonitrile]	5	36	4	419	12800
COc1ccc(F)c(-c2ccc3[nH]nc(-c4cncc(N5CCC(N)CC5)n4)c3c2)c1 [Example 61, 1-(6-(5-(2-fluoro-5-methoxyphenyl)-1H-indazol-3-yl)-2-pyrazinyl)-4-piperidinamine]	10	65	6	3010	> 31600

The remaining compounds from weak to strong by IC50 [1], led by results:

IC50 [1] [nM]	IC50 [2] [nM]	IC50 [3] [nM]	IC50 [4] [nM]	IC50 [5] [nM]	Structure (SMILES)
35	29	26	1400	8520	NC1CCN(c2cncc(-c3n[nH]c4ccc(-c5cc(C(=O)N6CCCCC6)ccc5F)cc34)n2)CC1 [Example 41, 1-(6-(5-(2-fluoro-5-(1-piperidinylcarbonyl)phenyl)-1H-indazol-3-yl)-2-pyrazinyl)-4-piperidinamine]
20	49	22	959	7030	CCN(CC)C(=O)c1ccc(F)c(-c2ccc3[nH]nc(-c4cncc(N5CCC(N)CC5)n4)c3c2)c1 [Example 46, 3-(3-(6-(4-amino-1-piperidinyl)-2-pyrazinyl)-1H-indazol-5-yl)-N,N-diethyl-4-fluorobenzamide]
13	87	9	1460	> 31600	CN1C(=O)Cc2cc(-c3ccc4[nH]nc(-c5cncc(N6CCC(N)CC6)n5)c4c3)ccc21 [Example 51, 5-(3-(6-(4-amino-1-piperidinyl)-2-pyrazinyl)-1H-indazol-5-yl)-1-methyl-1,3-dihydro-2H-indol-2-one]
12	23	8	1560	> 31600	NC1CCN(c2cncc(-c3n[nH]c4ccc(-c5cc(C(=O)Nc6ccccc6)ccc5F)cc34)n2)CC1 [Example 45, 3-(3-(6-(4-amino-1-piperidinyl)-2-pyrazinyl)-1H-indazol-5-yl)-4-fluoro-N-phenylbenzamide]
7	72	7	1340	> 31600	Cn1ccc2cc(-c3ccc4[nH]nc(-c5cncc(N6CCC(N)CC6)n5)c4c3)ccc2c1=O [Example 49, 6-(3-(6-(4-amino-1-piperidinyl)-2-pyrazinyl)-1H-indazol-5-yl)-2-methyl-1(2H)-isoquinolinone]
4	24	1	237	9500	NC1CCN(c2cncc(-c3n[nH]c4ccc(-c5ccc6ncsc6c5)cc34)n2)CC1 [Example 52, 1-(6-(5-(1,3-benzothiazol-6-yl)-1H-indazol-3-yl)-2-pyrazinyl)-4-piperidinamine]
2	15	1	130	> 31600	NC1CCN(c2cncc(-c3n[nH]c4ccc(-c5ccc6nccnc6c5)cc34)n2)CC1 [Example 56, 1-(6-(5-(6-quinoxalinyl)-1H-indazol-3-yl)-2-pyrazinyl)-4-piperidinamine]
